Measured values from PMC3041239 (Journal of Medicinal Chemistry, 2011).
Marks after values point to notes of the source that are not given here.

Assays:
[1] = tested on: rats; conditions: rat, cited from earlier work
[2] = sc administration; cited from earlier work
[3] = tested on: rats; test: Tail-flick test in the rat after sc administration; type: in vivo; conditions: pair 15 vs 16
[4] = target: human μ opioid receptor (Homo sapiens, UniProt P35372); type: biochemical
[5] = tested on: μ opioid receptor; conditions: first value of μ:δ:κ; cited from earlier work
[6] = tested on: δ opioid receptor; conditions: second value of μ:δ:κ; cited from earlier work
[7] = tested on: κ opioid receptor; conditions: third value of μ:δ:κ; cited from earlier work

Chain of human μ opioid receptor (P35372 whole entry): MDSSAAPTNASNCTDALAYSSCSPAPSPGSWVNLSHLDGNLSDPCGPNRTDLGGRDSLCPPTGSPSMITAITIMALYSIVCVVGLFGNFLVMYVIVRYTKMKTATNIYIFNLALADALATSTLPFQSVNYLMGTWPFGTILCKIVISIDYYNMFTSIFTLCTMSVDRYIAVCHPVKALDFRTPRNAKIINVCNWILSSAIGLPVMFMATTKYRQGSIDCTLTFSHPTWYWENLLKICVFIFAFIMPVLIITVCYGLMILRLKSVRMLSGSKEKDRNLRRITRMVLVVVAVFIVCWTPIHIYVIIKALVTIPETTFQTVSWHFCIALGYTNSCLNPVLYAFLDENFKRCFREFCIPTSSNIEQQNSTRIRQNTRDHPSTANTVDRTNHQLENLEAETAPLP

Row | Compound | ED50 (nmol/kg, sc), time after drug administration 0.5 h [1] [nmol/kg] | ED50 (nmol/kg, sc), time after drug administration 1 h [1] | ED50 (nmol/kg, sc), time after drug administration 2 h [1] [nmol/kg] | functional character at the μ receptor [4] | also measured
1 | CO[C@@]12CC[C@H](NCC(=O)O)[C@@H]3Oc4c(O)ccc5c4[C@@]31CCN(C)[C@@H]2C5 [Compound 9] | 137 | 58.5 ^c nmol/kg | 143 |  | ED50 (nmol/kg, sc), time after drug administration 3 h ([1]; 3 h): 437 nmol/kg
2 | CO[C@@]12CC[C@@H](NCC(=O)O)[C@@H]3Oc4c(O)ccc5c4[C@@]31CCN(C)[C@@H]2C5 [Compound 10, 2-[(4,5α-Epoxy-3-hydroxy-14β-methoxy-17-methylmorphinan-6β-yl)amino] acetic Acid] | 50.8 | 29.0 ^c nmol/kg | 43.3 |  | antinociceptive potency lower than that of 14-O-methyloxymorphone (1) [2]: 2 fold
3 | CC(C)(C)OC(=O)CN[C@@H]1CC[C@@]2(OCCCc3ccccc3)[C@H]3Cc4ccc(O)c5c4[C@@]2(CCN3CC2CC2)[C@H]1O5 [Compound 16] |  |  |  |  | difference in the potency between α and β epimers [3]: 13 fold
4 | Cl.Cl.O=C(O)CN[C@H]1CC[C@@]2(OCCCc3ccccc3)[C@H]3Cc4ccc(O)c5c4[C@@]2(CCN3CC2CC2)[C@H]1O5 [Compound 17, [[17-Cyclopropylmethyl-4,5α-epoxy-3-hydroxy-14β-[(3-phenylpropyl)oxy]morphinan-6α-yl]amino]acetic Acid Dihydrochloride] |  |  |  | highly potent partial agonists | 
5 | Cl.Cl.O=C(O)CN[C@@H]1CC[C@@]2(OCCCc3ccccc3)[C@H]3Cc4ccc(O)c5c4[C@@]2(CCN3CC2CC2)[C@H]1O5 [Compound 18, [[17-Cyclopropylmethyl-4,5α-epoxy-3-hydroxy-14β-[(3-phenylpropyl)oxy]morphinan-6β-yl]amino]acetic Acid Dihydrochloride] |  |  |  | highly potent partial agonists | 
6 | O=C1CC[C@@]2(O)[C@H]3Cc4ccc(O)c5c4[C@@]2(CCN3CC2CC2)[C@H]1O5 [naltrexone] |  |  |  |  | binding affinity μ [5]: 0.20; binding affinity δ [6]: 8.70; binding affinity κ [7]: 0.40
